Experimental findings from US7297714B2, “Inhibitors of cathepsin S” (IRM LLC, priority 2003, dated 2007) are described below.

Structures are written as SMILES.

What all share (assay type): biochemical
The target of one assay is Cathepsin B (Homo sapiens, UniProt P07858). The experiment in a line: Cathepsin B inhibition assay, selectivity for cathepsin S over cathepsin B. As to conditions: ratio of cathepsin B inhibition constant to cathepsin S inhibition constant. The protocol: (§1) The optimal substrate for cathepsin B, acetyl-histidine-proline-valine-lysine-amino carbamoyl coumarin, was identified from screening a combinatorial library of fluorogenic peptide substrates (Harris, J. L., B. J. Backes, et al., Proc Natl Acad Sci US A 2000, 97(14), 7754-9). Kinetic measurements are performed in a total reaction volume of 30 μl in 384-well microtiter plates. Cathepsin B, at a final concentration of 1.5 nM (active site), is incubated with the compounds at twelve varying concentrations in a buffer containing 100 mM NaAc (pH5.5), 1 mM EDTA, 100 mM NaCl, 0.01% Brij-35 for 20 minutes at room temperature. Control reactions in the absence of inhibitor are performed in replicates of 24. The reactions are initiated by adding the substrate, acetyl-histidine-proline-valine-lysine-amino carbamoyl coumarin, to a final concentration of 10 μM. The rate of substrate hydrolysis is measured by monitoring the increase in fluorescence at an excitation wavelength of 380 nm and an emission wavelength of 450 nm that results from cleavage of the aniline bond in the substrate by the enzyme. The apparent inhibition constants for the compounds are determined from the enzyme progress curves (Kuzmic, P., K. C. Elrod, et al., Anal Biochem 2000, 286(1), 45-50) and are then used to calculate the inhibition constants for competitive inhibitors.
(§2) Selectivity for cathepsin S in the presence of cathepsin isozymes was determined by the ratio of the cathepsin isozyme inhibition constant of a compound of the present invention to the cathepsin S inhibition constant of the same compound. Preferred compounds of the present invention selective for cathepsin S have ratios of greater than 10. More preferred compounds of the present invention selective for cathepsin S have ratios of greater than 100. Most preferred compounds of the present invention selective for cathepsin S have ratios of greater than 1000.

A further assay addresses T1, Cathepsin K (Homo sapiens, UniProt P43235).
T1 sequence (P43235 115-329): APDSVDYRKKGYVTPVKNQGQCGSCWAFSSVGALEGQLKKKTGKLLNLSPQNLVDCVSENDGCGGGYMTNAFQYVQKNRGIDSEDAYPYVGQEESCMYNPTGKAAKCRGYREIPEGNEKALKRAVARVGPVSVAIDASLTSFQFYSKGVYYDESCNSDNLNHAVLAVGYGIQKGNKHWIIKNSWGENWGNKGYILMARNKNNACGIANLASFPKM
The experiment in a line: Cathepsin K inhibition assay, selectivity for cathepsin S over cathepsin K. As to conditions: ratio of cathepsin K inhibition constant to cathepsin S inhibition constant. The protocol: as §1, with “cathepsin K, acetyl-lysine-histidine-proline-lysine-amino” for “cathepsin B, acetyl-histidine-proline-valine-lysine-amino”, “Sci USA” for “Sci US A”, “Cathepsin K,” for “Cathepsin B,”, “of 3.5” for “of 1.5”, “substrate, acetyl-lysine-histidine-proline-lysine-amino” for “substrate, acetyl-histidine-proline-valine-lysine-amino”, “of 40” for “of 10”
as §2

Another assay has as its target Cathepsin L (Homo sapiens, UniProt P07711). As to the kind of experiment: Cathepsin L inhibition assay, selectivity for cathepsin S over cathepsin L. As to conditions: ratio of cathepsin L inhibition constant to cathepsin S inhibition constant. The protocol:
The optimal substrate for cathepsin L, acetyl-histidine-lysine-phenylalanine-lysine-amino carbamoyl coumarin, was identified from screening a combinatorial library of fluorogenic peptide substrates (Harris, J. L., B. J. Backes, et al.; Proc Natl Acad Sci USA 2000, 97(14), 7754-9). Kinetic measurements are performed in a total reaction volume of 30 μl in 384-well microtiter plates. Cathepsin L, at a final concentration of 0.1 nM (active site), is incubated with the compounds at twelve varying concentrations in a buffer containing 100 mM NaAc (pH5.5), 1 mM EDTA, 100 mM NaCl, 0.01% Brij-35 for 20 minutes at room temperature. Control reactions in the absence of inhibitor are performed in replicates of 24. The reactions are initiated by adding the substrate, acetyl-histidine-lysine-phenylalanine-lysine-amino carbamoyl coumarin, to a final concentration of 20 μM. The rate of substrate hydrolysis is measured by monitoring the increase in fluorescence at an excitation wavelength of 380 nm and an emission wavelength of 450 nm that results from cleavage of the aniline bond in the substrate by the enzyme. The apparent inhibition constants for the compounds are determined from the enzyme progress curves (Kuzmic, P., K. C. Elrod, et al., Anal Biochem 2000, 286(1), 45-50) and are then used to calculate the inhibition constants for competitive inhibitors.
as §2

The next assay addresses T2, Caspase 1 (Homo sapiens, UniProt P29466).
T2 sequence (P29466 120-297 limits assumed): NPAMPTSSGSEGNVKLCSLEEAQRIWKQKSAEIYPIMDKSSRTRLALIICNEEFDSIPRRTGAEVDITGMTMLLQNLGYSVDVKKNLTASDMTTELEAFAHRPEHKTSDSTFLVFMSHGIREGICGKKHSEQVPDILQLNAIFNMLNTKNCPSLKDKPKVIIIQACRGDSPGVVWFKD
T2 sequence (P29466 317-404 limits assumed): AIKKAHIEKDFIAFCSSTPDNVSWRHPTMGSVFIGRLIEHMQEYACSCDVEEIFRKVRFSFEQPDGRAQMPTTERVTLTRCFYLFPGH
As to the kind of experiment: Inhibition Assay for Caspase 1. To be noted: Caspase-1 inhibition constant; pH 7.4; read-out: Ki Cas-1. The protocol:
The widely used substrate for caspase 1, acetyl-tryptophan-glutamate-histidine-spartic acid-amino carbamoyl coumarin, was used. Kinetic measurements are performed in a total reaction volume of 30 μl in 384-well microtiter plates. Caspase 1, at a final concentration of 0.2-1 nM (active site), is incubated with the compounds at twelve varying concentrations in a buffer containing 20 mM Hepes (pH 7.4), 1 mM EDTA, 100 mM NaCl, 0.1% CHAPS, 10% sucrose, 10 mM DTT for 20 minutes at room temperature. Control reactions in the absence of inhibitor are performed in replicates of 12. The reactions are initiated by adding the substrate to a final concentration of 4 μM. The rate of substrate hydrolysis is measured by monitoring the increase in fluorescence at an excitation wavelength of 380 nm and an emission wavelength of 450 nm that results from cleavage of the aniline bond in the substrate by the enzyme. The apparent inhibition constants for the compounds are determined from the enzyme progress curves (Kuzmic, Elrod et al. 2000) and are then used to calculate the inhibition constants for competitive inhibitors (Km=8 μM).

Sequence of Cathepsin L (P07711 114-333, species assumed): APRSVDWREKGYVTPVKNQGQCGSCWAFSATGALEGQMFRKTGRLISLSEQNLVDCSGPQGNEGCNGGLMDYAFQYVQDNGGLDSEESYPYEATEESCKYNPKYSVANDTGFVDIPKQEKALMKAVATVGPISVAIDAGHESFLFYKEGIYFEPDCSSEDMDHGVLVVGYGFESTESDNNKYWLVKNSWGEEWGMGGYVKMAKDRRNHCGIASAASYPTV

Usually Ki stands for the equilibrium dissociation constant of an inhibitor or competing ligand from its target. `O=C1C[C@H](NC(=O)[C@H](CC2CCCC2)NC(=O)N2CCOCC2)C(O)O1` (stereo partly drawn) [Example 2, (3S)-{3-Cyclopentyl-(2S)-[(morpholine-4-carbonyl)-amino]-propionylamino}-4-oxo-butyric acid]: the “Selectivity for Cat. S over Cat. B” value at Cathepsin B is recorded as “+++ (+++, >1000)”. For the same compound, on Cathepsin K, the “Selectivity for Cat. S over Cat. K” value was “++ (++, >100)”. Moreover, the “Selectivity for Cat. S over Cat. L” value on Cathepsin L is given as “++ (++, >100)”. Also, on Caspase 1, the Ki is above 100 µM.

For the compound `O=C[C@H](CC(=O)O)NC(=O)[C@@H](CC(=O)N1CCOCC1)CC1CCCC1` [Example 4, (3S)-[(2R)-Cyclopentylmethyl-4-morpholin-4-yl-4-oxo-butyrylamino]-4-oxo-butyric acid], on Cathepsin B, the “Selectivity for Cat. S over Cat. B” value is on record as “+++ (+++, >1000)”. In addition, the “Selectivity for Cat. S over Cat. K” value on Cathepsin K is on record as “+ (+, >10)”. Further, the “Selectivity for Cat. S over Cat. L” value on Cathepsin L was “++ (++, >100)”. The Ki at Caspase 1 is above 10 µM.

Consider `O=C1C[C@H](NC(=O)[C@H](CC2CCCC2)NS(=O)(=O)c2cccc(OC(F)(F)F)c2)C(O)O1` (stereo partly drawn) [Example 8, (3S)-[3-Cyclopentyl-(2S)-(3-trifluoromethoxy-benzenesulfonylamino)-propionylamino]-4-oxo-butyric acid], for which the “Selectivity for Cat. S over Cat. B” value at Cathepsin B was “+++ (+++, >1000)”. Besides, the “Selectivity for Cat. S over Cat. K” value on Cathepsin K is “++ (++, >100)”. On Cathepsin L, the “Selectivity for Cat. S over Cat. L” value is recorded as “++ (++, >100)”. In addition, the inhibition constant (Ki) on Caspase 1 is above 100 µM.

As for `O=C1C[C@H](NC(=O)O[C@@H](CC2CCCCC2)C(=O)N2CCOCC2)C(O)O1` (stereo partly drawn) [Example 10, (3S)-[2-cyclohexyl-(1S)-(morpholin-4-carbonyl)-ethoxycarbonylamino]-4-oxo-butyric acid], the “Selectivity for Cat. S over Cat. B” value on Cathepsin B is listed as “+++ (+++, >1000)”. Moreover, the “Selectivity for Cat. S over Cat. K” value at Cathepsin K is listed as “++ (++, >100)”. Also, the “Selectivity for Cat. S over Cat. L” value on Cathepsin L was “+++ (+++, >1000)”. Moreover, the Ki on Caspase 1 was above 100 µM.

Regarding `O=C1C[C@H](NC(=O)O[C@@H](CC2CCCC2)Cn2cnc3cc(Cl)c(Cl)cc32)C(O)O1` (stereo partly drawn) [Example 5, (3S)-[(1S)-Cyclopentylmethyl-2-(5,6-dichloro-benzoimidazol-1-yl)-ethoxycarbonylamino]-4-oxo-butyric acid], on Cathepsin B, the “Selectivity for Cat. S over Cat. B” value is listed as “+++ (+++, >1000)”. Further, the “Selectivity for Cat. S over Cat. K” value at Cathepsin K is “+ (+, >10)”. The “Selectivity for Cat. S over Cat. L” value on Cathepsin L was “+ (+, >10)”. Moreover, the Ki on Caspase 1 was above 10 µM.

In the case of `O=C1C[C@H](NC(=O)[C@@H](CC(=O)N2CCOCC2)CC2CCCCC2)C(O)O1` (stereo partly drawn) [Example 6, (3S)-{(2R)-Cyclohexylmethyl-4-morpholin-4-yl-4-oxo-butyrylamino}-4-oxo-butyric acid], the “Selectivity for Cat. S over Cat. B” value on Cathepsin B is “+++ (+++, >1000)”. At Cathepsin K, the “Selectivity for Cat. S over Cat. K” value is “++ (++, >100)”. Besides, the “Selectivity for Cat. S over Cat. L” value on Cathepsin L was “++ (++, >100)”. Further, at Caspase 1, the Ki was above 100 µM.

`CC(C)(C)C[C@H](OC(=O)N[C@H]1CC(=O)OC1O)C(=O)N1CCOCC1` (stereo partly drawn) [Example 9, (3S)-[3,3-Dimethyl-(1S)-(morpholine-4-carbonyl)-butoxycarbonylamino]-4-oxo-butyric acid]: the “Selectivity for Cat. S over Cat. B” value at Cathepsin B is listed as “++ (++, >100)”. Moreover, the “Selectivity for Cat. S over Cat. L” value on Cathepsin L was “++ (++, >100)”. Also, the Ki on Caspase 1 is above 100 µM.

On to `O=C1C[C@H](NC(=O)[C@H](CC2CCCC2)NC(=O)c2ccc(-c3cccc(F)c3)o2)C(O)O1` (stereo partly drawn) [Example 1, (3S)-(3-Cyclopentyl-(2S)-{[5-(3-fluoro-phenyl)-furan-2-carbonyl]-amino}-propionylamino)-4-oxo-butyric acid], for which, on Cathepsin B, the “Selectivity for Cat. S over Cat. B” value is “+++ (+++, >1000)”. Moreover, at Cathepsin K, the “Selectivity for Cat. S over Cat. K” value was “+ (+, >10)”. Also, on Cathepsin L, the “Selectivity for Cat. S over Cat. L” value is “++ (++, >100)”. Also, the inhibitory constant (Ki) at Caspase 1 is above 1 µM.

Regarding `O=C1C[C@H](NC(=O)[C@H](CC2CCCCC2)OC(=O)N2CCOCC2)C(O)O1` (stereo partly drawn) [Example 3, (3S)-{3-cyclohexyl-(2S)-(morpholine-4-carbonyloxy)-propionylamino}-4-oxo-butyric acid], the “Selectivity for Cat. S over Cat. B” value on Cathepsin B is listed as “+++ (+++, >1000)”. The “Selectivity for Cat. S over Cat. K” value at Cathepsin K is “+ (+, >10)”. Besides, the “Selectivity for Cat. S over Cat. L” value at Cathepsin L is reported as “+ (+, >10)”. The Ki on Caspase 1 is above 10 µM.

For `O=C1C[C@H](NC(=O)[C@H](CC2CCCCC2)NS(=O)(=O)c2cccc(OC(F)(F)F)c2)C(O)O1` (stereo partly drawn) [Example 7, (3S)-[3-Cyclohexyl-(2S)-(3-trifluoromethoxy-benzenesulfonylamino)-propionylamino]-4-oxo-butyric acid], the “Selectivity for Cat. S over Cat. B” value at Cathepsin B is on record as “+++ (+++, >1000)”. Further, at Cathepsin K, the “Selectivity for Cat. S over Cat. K” value is recorded as “++ (++, >100)”. Moreover, the “Selectivity for Cat. S over Cat. L” value on Cathepsin L was “++ (++, >100)”. The Ki at Caspase 1 was above 10 µM.
